Experimental data as given in patent US7842825B2, “Biaryloxymethylarenecarboxylic acids as glycogen synthase activator” (Hoffmann-La Roche Inc., priority 2003, dated 2010).

These compounds were tested on glycogen synthase (assay: Glycogen Synthase (GS) Assay, in vitro activation of glycogen synthase). Settings: compound concentration needed to stimulate 200% of the enzyme activity; coupled pyruvate kinase/lactate dehydrogenase assay, absorbance at 340 nm, 37° C.
Assay type: biochemical
Experimental: Twelve μl per well of substrate solution containing glycogen (4.32 mg/ml), 21.6 mM UDP-glucose, 21.6 mM phospho(enol)pyruvate and 2.7 mM NADH in 30 mM glycylglycine, pH 7.3 buffer is added into a polystyrene 384-well assay plate (BD Biosciences). Compound solution (8 μl/well) at various concentrations (0-57 μM) in 30 mM glycylglycine, pH 7.3, 40 mM KCl, 20 mM MgCl2 plus 9.2% DMSO are added to the assay plate (columns 5-24). Enzyme solution (12 μl/well) containing glycogen synthase (16.88 μg/ml), pyruvate kinase (0.27 mg/ml), lactate dehydrogenase (0.27 mg/ml) in 50 mM Tris-HCl, pH 8.0, 27 mM DTT and bovine serum albumin (BSA, 0.2 mg/ml) is added to the assay plate (columns 3-24). As a blank control, enzyme solution without glycogen synthase is added into the top half wells of columns 1-2. To the bottom half wells of columns 1-2 are added a known activator, glucose 6-phosphate (18.9 mM) in addition to the enzyme solution. The reaction mixture is incubated at 37° C. The assay plate is then read for absorbance at 340 nm on a Tecan Ultra reader every 3 minutes up to a total of 30 minutes.
(§1) The enzyme activity (with or without compound) is calculated by the reaction rate and represented by the optical density change (ΔOD) per minute. Percent stimulation of glycogen synthase activity by a compound at various concentrations is calculated by the following formula: % stimulation=100*Rs/Rt,
where Rs is the reaction rate of the enzyme in the presence of compound and Rt is the reaction rate of the enzyme in the absence of compound.
SC2.0 is defined as the compound concentration that is needed to stimulate 200% of the enzyme activity.
Glycogen Synthase (GS) Assay
The following tests were carried out in order to determine the activity of the compounds of formula (I).
Twelve μl per well of substrate solution containing glycogen (4.32 mg/ml), 21.6 mM UDP-glucose, 21.6 mM phospho(enol)pyruvate and 2.7 mM NADH in 30 mM glycylglycine, pH 7.3 buffer was added into a polystyrene 384-well assay plate (BD Biosciences). Compound solution (8 μl/well) at various concentrations (0-57 μM) in 30 mM glycylglycine, pH 7.3, 40 mM KCl, 20 mM MgCl2 plus 9.2% DMSO were added to the assay plate (columns 5-24). Enzyme solution (12 μl/well) containing glycogen synthase (16.88 μg/ml), pyruvate kinase (0.27 mg/ml), lactate dehydrogenase (0.27 mg/ml) in 50 mM Tris-HCl, pH 8.0, 27 mM DTT and bovine serum albumin (BSA, 0.2 mg/ml) was added to the assay plate (columns 3-24). As a blank control, enzyme solution without glycogen synthase was added into the top half wells of columns 1-2. To the bottom half wells of columns 1-2 were added a known activator, glucose 6-phosphate (18.9 mM) in addition to the enzyme solution. The reaction mixture was incubated at 37° C. The assay plate was then read for absorbance at 340 nm on a Tecan Ultra reader every 3 minutes up to a total of 30 minutes.
as §1, with “was” for “is”, “stimulation=100*Rs/Rt, […]” for “stimulation=100*Rs/Rt,”
With O=C(O)[C@H]1CCCN1C(=O)c1ccc(COc2ccc(-c3ccccc3)cc2)o1 [1-[5-(Biphenyl-4-yloxymethyl)-furan-2-carbonyl]-L-pyrrolidine-2-carboxylic acid] the SC2.0 was 1.4 µM. In the case of O=C(O)c1ccc(COc2ccc(-c3ccccc3)cc2)s1 [5-(Biphenyl-4-yloxymethyl)-thiophene-2-carboxylic acid], the SC2.0 is reported as 12.7 µM. Compound O=C(O)c1cccc(COc2ccc(-c3ccc(Br)cc3)cc2)c1 [Example 4, 3-(4′-Bromo-biphenyl-4-yloxymethyl)-benzoic acid] has an SC2.0 of 3.8 µM. With COc1ccc(-c2ccc(OCc3cccc(C(=O)O)c3)cc2)cc1 [Example 7, 3-(4′-Methoxy-biphenyl-4-yloxymethyl)-benzoic acid] the SC2.0 was 9.6 µM. O=C(O)c1ccc(COc2cccc(-c3ccccc3)c2)o1 [Example 9, 5-(Biphenyl-3-yloxymethyl)-furan-2-carboxylic acid] was tested, and the SC2.0 was 14.9 µM. For O=C(O)c1ccc(COc2ccc(-c3ccc(Cl)cc3)cc2)o1 [Example 12, 5-(4′-Chloro-biphenyl-4-yloxymethyl)-furan-2-carboxylic acid], the SC2.0 was 0.8 µM. Work on O=C(O)c1ccccc1COc1ccc(-c2ccccc2)cc1Cl [Example 15, 2-(3-Chloro-biphenyl-4-yloxymethyl)-benzoic acid] yielded an SC2.0 of 10.3 µM. For O=C(O)c1csc(COc2ccc(-c3ccccc3)cc2Cl)n1 [Example 22, 2-(3-Chloro-biphenyl-4-yloxymethyl)-thiazole-4-carboxylic acid], the SC2.0 was 14.9 µM. Work on O=C(O)c1csc(COc2ccc(-c3ccc(Cl)cc3)cc2)n1 [Example 26, 2-(4′-Chloro-biphenyl-4-yloxymethyl)-thiazole-4-carboxylic acid] yielded an SC2.0 of 3.1 µM. Compound O=C(NC1(C(=O)O)CCCC1)c1ccc(COc2ccc(-c3ccccc3)cc2)o1 [Example 34, 1-{[5-(Biphenyl-4-yloxymethyl)-furan-2-carbonyl]-amino}-cyclopentane carboxylic acid] has an SC2.0 of 16.3 µM.
